The values below come from patent publication US7125568B2, “Lipophilic drug compositions” (priority 2001, dated 2006).

Structures are written as SMILES. Like-named read-outs stand apart in the source and are kept apart here.

Series [1] in a line: Degradation of aspirin in sodium carbonate, monitored by UV spectrophotometry. As to conditions: 0.1 M NaCO3 (10 pH), at 27 hours. The class given is physicochemical. The text has this:
In this example, aspirin is encapsulated in Sterotex® using the method described in Example 1. In aspirin, the deacetylated species is salicylic acid, which has a characteristic absorbency at 296 nm. The comparison of drug stability of Sterotex®/aspirin vs. aspirin was made in 0.1 M NaCO3 (10 pH) and the kinetics of degradation monitored by UV spectrophotometry. In FIG. 1, the appearance of salicylic acid is compared between aspirin encapsulated in Sterotex® and free aspirin. Aspirin slowly dissolves and is hydrolyzed to salicylic acid in a basic solution of 0.1 M NaCO3. At 27 hours, it is roughly 38% hydrolyzed. By contrast, aspirin encapsulated in Sterotex® is quite stable even at 27 hours and is only less than 2% degraded. This example illustrates the increase in drug stability provided by encapsulation in a lipid component.

The nature of series [2]: Degradation of acetylbenzamide nitrothiazole in 0.1 M NaCO3 (optical density). To be noted: 0.1 M NaCO3, at 3 hours. The class given is physicochemical. The text has this:
(§1) Acetylbenzamide nitrothiazole, otherwise known as NTZ, is an antibiotic drug useful as a treatment for protozoan parasites. […] Acetylbenzamide nitrothiazole encapsulated by Sterotex® as described in Example 1 is hydrophobic and remains afloat on the water surface.
The kinetic of degradation of acetylbenzamnide nitrothiazole in 0.1 M NaCO3 is similar to the aspirin curve of FIG. 1. […] 1, while the free drug has an optical density of 1.9. This example also illustrates the stabilizing effect of lipid encapsulation.

A short description of series [3]: Solubility and stability in water. The class given is physicochemical.
Description: as §1

In series [4] the test system is HCMV. Briefly: Plaque reduction assay, HCMV in human embryonic fibroblast cells. The class given is cell-based, Human Cytomalovirus. The method, then: (§2) The drugs, NTZ and BA 3540, were made soluble at 10 mg/mL in dimethylsulfoxide and then diluted in media to 50 μg/mL, 5 μg/mL, 2.5 μg/mL, and 1.5 μg/mL. Human embryonic fibroblast cells were propagated in minimal essential media and supplemented with 10% fetal bovine serum. Cells were pre-treated with the two drugs at the 4 specified concentrations plus a zero control for 45 minutes. The plates were each infected with 300–400 viral particles of either HSV or HCMV for 1 hour. Drug free media was added to each plate and incubation continued for 3 days to propagate virus. At the end of three days, the supernatant from each of the plates was removed for plaque reduction assays.
For orientation: In a plaque reduction assay, fewer plaques than in the control indicate reduced infectivity or spread.

For series [5] the following is noted: cited from earlier work.
For series [6] the following is noted: free form; cited from earlier work.
In series [7] the test system is Sarcocystis neurona. The text has this: The new drug was encapsulated as in Example 4 with 27% palmitic acid and 73% of Sterotex®.
Case 1: “Chris” is a 7 year old quarter horse gelding. […] Chris was given daily oral treatment of the new paste formulation containing lipid encapsulated 2-lauramide-5-nitrothiazole for a total of 28 dosings with 25 gm/syringe. (On day 22 to 28, the drug was not given and then resumed medication in the following week).
Case 2: “Brooke” is an 18-year-old thoroughbred mare. […] Again the horse was given daily oral treatments with the current dose of a typical 1000 lb horse at about 50 mg/Kg body weigh or 25 gm/day.
Case 3: “Foundation Man” is a 22-year-old Appaloosa gelding. […] Foundation Man was given daily oral treatments with the same amount of medication for 28 days.

Series [8] concerns coccidia. In words: Treatment of coccidiosis in chickens (fecal float oocyst levels). As to the method:
An initial trial involving 120 broilers (4 week old chickens) for the treatment of coccidiosis was made. Three treatment groups were used: (1) control, (2) low dose of 10 mg BA 3540/kg treatment, and (3) high dose at 50 mg BA 3540/kg treatment. The broilers were separated into six pens, […]. Fecal collection was begun to check for the presence of coccidian. The treatments were then assigned and the trial started. The treatment was added to a mash diet and fed adlib for seven days. At the end of the treatment period, new fecal collections for each treatment group were analyzed for the presence of coccidia.
Two fecal samples were taken from each pen and a fecal float was done to check oocyst levels. Oocyst levels are considered to determine the adult coccidian present in an intestinal tract.
A confirmatory trial was conducted with 10 seven-week-old Arbor Acres broilers. The birds were divided into two groups: control and 50 mg/kg treatment groups. The two set of cages were off the floor to prevent any potential contamination. The trial was monitored for four days and fecal floats for oocyte population were used to determine efficacy. Two fecal samples were collected from each cage.

In series [9] the test system is fungal growth. In words: Topical treatment of yellow fungal toes. The class given is in vivo, patients. As to conditions: 3% weight percent gel, 5 consecutive days then weekly for 4 weeks, after two weeks. The method, then: In the present study, patients suffering from yellow fungal toes were treated with a 3% weight percent BA3540 in a gel formulation (gel comprises propylene glycol and 0.8% Carbopol® Gel) for 5 consecutive days by topical application of the gel formulation on the surrounding nail cuticle area, followed by weekly treatment with the gel formulation for the next 4 weeks. The thickening of the nail caused by fungal growth disappeared after two weeks, and several months later a healthy nail began to appear behind the thick nail.

Series [10] concerns HSV. Briefly: Plaque reduction assay, HSV in human embryonic fibroblast cells. The class given is cell-based, Herpes simplex virus. As to the method:
as §2

The nature of series [11]: Solubility and heat stability of the bulk drug. The class given is physicochemical. As to the method: In a typical example, an equimolar ratio (approximately 2.5 moles) of lauric acid is activated with dicyclohexyl-carbodiimide (DCC) in 500 mL of dimethylformamide. After 90 minutes, the insoluble dicyclohexylurea formed is removed by vacuum filtration. The activated lauric acid solution is then added in approximately 1:1 ratio of the nucleophile 2-amino-5 nitro-thiazole in 600 mL of methylene chloride, 60 ml of pyridine and made up to 3.5 liters with dimethylformamide. The reaction is allowed to proceed for 40–48 hours with shaking, stirring or heating at 50° C. The product formed is obtained and purified by precipitation and recrystallization in methanol and or acetone. This synthesis scheme is depicted as 2-lauramide-5-nitrothioazole and is a nice needle shaped microcrystal. […] To promote complete dissolution, the drug has to be lightly heated.

Regarding `CC(=O)Oc1ccccc1C(=O)O` [aspirin], in series [1], the “hydrolyzed to salicylic acid (degraded)” value is given as “roughly 38%”.

Consider `CC(=O)Oc1ccccc1C(=O)Nc1ncc([N+](=O)[O-])s1` [NTZ, Nitazoxanide], for which the optical density in series [2] was found to be 1.9. Moreover, the stability in water result in series [3] (standing in water, room temperature) is on record as “converted to the deacetylated counterpart”. Further, in [3] (water), the solubility in water entry is recorded as “sparingly soluble”. Further, the plaques entry in series [4] (all four drug concentrations (1.5, 2.5, 5, 50 μg/mL), control 310 plaques) is listed as “no viral plaques”. In addition, the “expiry of bulk drug” value in series [5] was “two”. The “adverse effects in horses” value in series [6] is “causes anorexia, depression and diathermia or loose stool”.

With `CCCCCCCCCCCC(=O)Nc1ncc([N+](=O)[O-])s1` [BA 3540, 2-lauramide-5-nitrothiazole], the “EPM grade after treatment” value was 0/1 in [7] (Case 1 Chris, from Grade 3, lipid encapsulated paste, oral daily, 28 dosings, 25 gm/syringe); 2 grade in [7] (Case 2 Brooke, started at Grade 2, day 29, about 50 mg/Kg or 25 gm/day oral); 0 Grade in series [7] (Case 3 Foundation Man, from Grade 2/3, 28 day oral treatment). Besides, the “recovery from EPM” value in series [7] (all three horses, owners' reports, day 84) is on record as “fully recovered”. For the same compound, in series [7] (in vivo, po), the side effects result is “no side effects”. Further, in series [8] (broilers, 10 and 50 mg/kg in diet), the mortality entry is given as “no mortality”. The “oocytes in fecal samples” value in series [8] (confirmatory trial, 50 mg/kg, four days, seven-week-old broilers) was “no visible oocytes”. For the same compound, the “samples with detectable oocyst” value in [8] (high dose group 50 mg/kg in mash diet, initial trial) is 1 of 4. Further, the amount of oocyst result in series [8] (low treatment group 10 mg/kg in mash diet, initial trial) is reported as “about the same as the control group”. The “thickening of the nail caused by fungal growth” value in series [9] is recorded as “disappeared”. Moreover, the projected therapeutic range in series [4] lay within 1.5 to 2.5 µg/mL. Moreover, the plaques is recorded as 3 in series [4] (1.5 μg/mL, controls 300 plaques); 1 in [4] (2.5 μg/mL, controls 300 plaques); “none” in series [4] (higher drug concentrations (5 and 50 μg/mL)); 90 in series [10] (1.5 μg/mL, control 110 plaques). In series [10], the therapeutic range lay within 5 to 10 µg/mL. Besides, in series [11] (bulk drug), the solubility in methanol entry was “sparingly soluble”. Besides, the “solubility in methylene chloride and dimethylforamide” value in [11] (bulk drug) was “more soluble”. Moreover, the solubility in water entry in [11] (bulk drug) is “insoluble”. Further, the “stability on heating in organic solvents” value in series [11] (methanol, acetone, methylene chloride, dimethylforamide at 60–80° C.) is “no appreciable detriment”.
